Measured values: patent US8673915B2, “P 2×4 receptor antagonist” (Nippon Chemiphar Co., Ltd., priority 2010, dated 2014)
Counter-ions that a name gives are not always drawn.

molecular target: T1, P2X4 receptor (Homo sapiens, UniProt Q99571); assay: Intracellular calcium assay (Fura-2 AM) of ATP-induced calcium influx in 1321N1 cells stably expressing human P2X4 receptors; format: cell-based; conditions: Table 25, Example 30; 1321N1 cells expressing human P2X4; compounds added 15 minutes before ATP; Fura-2 340/380 nm ratio; read-out: IC50 (P2X4 receptor antagonism)
T1 sequence (Q99571 1-388): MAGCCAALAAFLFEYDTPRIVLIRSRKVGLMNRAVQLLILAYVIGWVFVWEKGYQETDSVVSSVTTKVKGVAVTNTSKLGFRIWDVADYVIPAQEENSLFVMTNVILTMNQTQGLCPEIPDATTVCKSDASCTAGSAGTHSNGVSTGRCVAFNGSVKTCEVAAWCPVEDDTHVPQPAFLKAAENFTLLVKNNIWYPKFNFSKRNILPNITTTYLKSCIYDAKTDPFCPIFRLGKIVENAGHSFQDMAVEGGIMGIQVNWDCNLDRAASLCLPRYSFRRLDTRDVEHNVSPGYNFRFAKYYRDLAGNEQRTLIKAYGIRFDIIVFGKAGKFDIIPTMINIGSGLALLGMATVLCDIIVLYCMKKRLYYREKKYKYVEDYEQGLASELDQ
Method: 1321N1 cells stably expressing human P2X4 receptors were plated in 96-well assay plate and cultured 24 hours at 37° C. in an atmosphere of 5% CO2 for intracellular calcium assay. Fura-2 AM calcium fluorescent indicator was used for the intracellular calcium assay. Fura-2 AM was dissolved in an assay buffer, and the solution was loaded onto cells. The obtained plate was used for fluorescent assay. Test compounds were treated to cells 15 minutes before the addition of ATP, and the response to intracellular calcium influx induced by addition of ATP was monitored by a micro plate reader. The fluorescence ratio of excitations wavelengths of 340 nm and 380 nm was used as the index of intracellular calcium change. The inhibition activities of the test compounds were calculated by comparison with the absence of the test compound (control).
P2X4 receptor antagonism of the compound of the present invention was measured as described below.
P2X4 receptor antagonism of the compound of the present invention was measured in the same manner as in Example 30.

IC50	Compound
0.46 µM	O=c1[nH]c2c3ccccc3ccc2n(-c2cccc(-c3nnn[nH]3)c2)c1=O [Example 2, 4-[3-(1H-Tetrazol-5-yl)phenyl]-1,4-dihydrobenzo[f]quinoxaline-2,3-dione sodium salt]
6.6 µM	COc1cccc(-n2c(=O)c(=O)[nH]c3c4ccccc4ccc32)c1 [Example 3, 4-(3-Methoxyphenyl)-1,4-dihydrobenzo[f]quinoxaline-2,3-dione]
5.1 µM	Nc1cccc(-n2c(=O)c(=O)[nH]c3c4c(ccc32)CCCC4)c1 [Example 7, 4-(3-Aminophenyl)-1,4,7,8,9,10-hexahydrobenzo[f]quinoxaline-2,3-dione hydrochloride]
2.1 µM	O=c1[nH]c2c3c(ccc2n(-c2cccc(NS(=O)(=O)c4ccccc4[N+](=O)[O-])c2)c1=O)CCCC3 [Example 9, N-[3-(2,3-Dioxo-2,3,7,8,9,10-hexahydrobenzo[f]quinoxalin-4(1H)-yl)phenyl]-2-nitrobenzenesulfonamide]

same assay, conditions: Table 26, Example 31; same manner as in Example 30; read-out: IC50 (P2X4 receptor antagonism)

Compound	IC50
Nc1cccc(-n2c(=O)c(=O)[nH]c3c4ccccc4ccc32)c1 [Example 13, 4-(3-Aminophenyl)-1,4-dihydrobenzo[f]quinoxaline-2,3-dione hydrochloride]	2.1 µM
O=C(Cc1ccccc1I)Nc1cccc(-n2c(=O)c(=O)[nH]c3c4ccccc4ccc32)c1 [Example 14, 4-[3-[(2-Iodophenylacetyl)amino]phenyl)-1,4-dihydrobenzo[f]quinoxaline-2,3-dione]	0.88 µM
Cc1nnc(-c2cccc(-n3c(=O)c(=O)[nH]c4c5ccccc5ccc43)c2)o1 [Example 15, 4-[3-(5-Methyl-[1,3,4]oxadiazol-2-yl)phenyl]-1,4-dihydrobenzo[f]quinoxaline-2,3-dione]	6.7 µM
O=c1[nH]c2c3ccccc3ccc2n(-c2ccc(O)cc2)c1=O [Example 17, 4-(4-Hydroxyphenyl)-1,4-dihydrobenzo[f]quinoxaline-2,3-dione sodium salt]	2.7 µM
Nc1ccc(-n2c(=O)c(=O)[nH]c3c4ccccc4ccc32)cc1 [Example 18, 4-(4-Aminophenyl)-1,4-dihydrobenzo[f]quinoxaline-2,3-dione hydrochloride]	5.7 µM
O=C(Nc1cccc(-n2c(=O)c(=O)[nH]c3c4c(ccc32)CCCC4)c1)c1ccccc1C(F)(F)F [Example 21]	7.7 µM

Second part, the compound after the results:

IC50	Compound
0.8 µM	O=c1[nH]c2c3c(ccc2n(-c2cccc(NS(=O)(=O)c4ccccc4)c2)c1=O)CCCC3 [Example 22, N-[3-(2,3-Dioxo-2,3,7,8,9,10-hexahydro-1H-benzo[f]quinoxalin-4-yl)phenyl]benzenesulfonamide]
1.3 µM	O=c1[nH]c2c3c(ccc2n(-c2cccc(NS(=O)(=O)c4cccc(Br)c4)c2)c1=O)CCCC3 [Example 23, 3-Bromo-N-[3-(2,3-dioxo-2,3,7,8,9,10-hexahydro-1H-benzo[f]quinoxalin-4-yl)phenyl]benzenesulfonamide]
2.6 µM	O=c1[nH]c2c3c(ccc2n(-c2cccc(NS(=O)(=O)c4cccc5ccccc45)c2)c1=O)CCCC3 [Example 24, N-[3-(2,3-Dioxo-2,3,7,8,9,10-hexahydro-1H-benzo[f]quinoxalin-4-yl)phenyl]-1-naphthalenesulfonamide]
1.8 µM	O=c1[nH]c2c3c(ccc2n(-c2cccc(NS(=O)(=O)c4cccs4)c2)c1=O)CCCC3 [Example 26, N-[3-(2,3-Dioxo-2,3,7,8,9,10-hexahydro-1H-benzo[f]quinoxalin-4-yl)phenyl]-2-thiophenesulfonamide]
3 µM	O=c1[nH]c2c3c(ccc2n(-c2cccc(NS(=O)(=O)c4cccnc4)c2)c1=O)CCCC3 [Example 27, N-[3-(2,3-Dioxo-2,3,7,8,9,10-hexahydro-1H-benzo[f]quinoxalin-4-yl)phenyl]-3-pyridinesulfonamide hydrochloride]
1.9 µM	O=c1[nH]c2c3c(ccc2n(-c2cccc(NS(=O)(=O)c4cccc5cccnc45)c2)c1=O)CCCC3 [Example 28, N-[3-(2,3-Dioxo-2,3,7,8,9,10-hexahydro-1H-benzo[f]quinoxalin-4-yl)phenyl]-8-quinolinesulfonamide hydrochloride]

molecular target: T1, P2X4 receptor; assay: not given; conditions: disclosed in Non-patent document 8; cited from earlier work

Compound	P2X4 receptor antagonism
Fc1ccc([C@@H]2CCNC[C@H]2COc2ccc3c(c2)OCO3)cc1 [Paroxetine]	shows P2X4 receptor antagonism
